Results on 32 molecules are retold here after patent publication US7420056B2, “Substituted bicyclic imidazo-3-ylamine compounds” (Gruenenthal GmbH, priority 2004, dated 2008).

Structures are written as SMILES. pIC50: −log10 of the molar value.

In the first assay the target is mGluR5 receptor (Sus scrofa, UniProt I3LUI7). The assay can be described thus: Affinity for the mGluR5 receptor: inhibition of 3[H]-MPEP binding in pig brain homogenate. The conditions noted are these: 10 μM compound, 5 nM 3[H]-MPEP, read-out: mGluR5 receptor inhibition of ^3[H]-MPEP binding [10 μM] in % at a concentration of the example compounds of 10 μM. The procedure: 1. Method for Determining Affinity for the mGluR5 Receptor
Chain of mGluR5 receptor (I3LUI7 19-1212): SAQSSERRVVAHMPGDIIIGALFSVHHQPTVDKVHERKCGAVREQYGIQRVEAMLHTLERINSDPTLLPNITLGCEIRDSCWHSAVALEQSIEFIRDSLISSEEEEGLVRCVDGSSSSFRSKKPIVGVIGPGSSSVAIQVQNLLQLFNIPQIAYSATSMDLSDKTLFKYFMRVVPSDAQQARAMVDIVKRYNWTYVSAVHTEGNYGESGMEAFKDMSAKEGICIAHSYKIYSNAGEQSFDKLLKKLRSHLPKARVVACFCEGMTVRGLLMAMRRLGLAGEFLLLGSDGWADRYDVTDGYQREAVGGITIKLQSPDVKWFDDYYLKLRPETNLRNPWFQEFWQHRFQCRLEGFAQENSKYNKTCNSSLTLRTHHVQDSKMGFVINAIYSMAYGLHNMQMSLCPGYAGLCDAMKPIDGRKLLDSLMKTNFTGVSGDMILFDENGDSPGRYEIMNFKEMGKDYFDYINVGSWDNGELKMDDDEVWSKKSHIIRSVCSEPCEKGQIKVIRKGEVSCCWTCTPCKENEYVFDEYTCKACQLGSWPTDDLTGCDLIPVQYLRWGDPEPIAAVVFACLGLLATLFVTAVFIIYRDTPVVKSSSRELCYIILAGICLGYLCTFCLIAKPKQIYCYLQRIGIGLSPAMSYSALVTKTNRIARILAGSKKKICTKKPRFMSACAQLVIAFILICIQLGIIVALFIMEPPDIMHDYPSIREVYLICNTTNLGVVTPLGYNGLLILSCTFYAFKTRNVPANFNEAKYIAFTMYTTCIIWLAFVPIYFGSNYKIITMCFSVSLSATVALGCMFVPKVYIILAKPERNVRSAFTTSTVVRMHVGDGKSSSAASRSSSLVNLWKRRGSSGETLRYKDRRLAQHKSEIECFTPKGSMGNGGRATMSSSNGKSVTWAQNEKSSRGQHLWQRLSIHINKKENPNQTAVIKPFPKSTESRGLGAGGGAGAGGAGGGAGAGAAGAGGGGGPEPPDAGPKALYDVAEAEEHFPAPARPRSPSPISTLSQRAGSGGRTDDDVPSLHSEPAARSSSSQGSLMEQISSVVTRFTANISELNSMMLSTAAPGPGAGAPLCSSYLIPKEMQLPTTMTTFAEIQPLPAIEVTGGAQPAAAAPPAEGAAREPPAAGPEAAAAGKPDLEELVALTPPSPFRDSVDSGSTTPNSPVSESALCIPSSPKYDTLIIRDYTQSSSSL
Pig brain homogenate is produced by homogenisation (Polytron Pt 3000, Kinematica AG, 10,000 revolutions per minute for 90 seconds) of pig brain hemispheres without medulla, cerebellum and pons in a buffer of pH 8.0 (30 mM Hepes, Sigma, order number H3375+1 tablet Complete Roche Diagnostics, order number 1836145 made up to 100 ml) in a ratio of 1:20 (brain weight/volume) and differential centrifugation at 900×g and 40,000×g. 450 μg of protein from brain homogenate is incubated in each case in 250 μl incubation batches in 96-well microtitre plates with 5 nM 3[H]-MPEP (Tocris, order number R1212) (MPEP=2-methyl-6-[…]) and the compounds to be investigated (10 μM in the test) in the buffer (as above) at room temperature for 60 minutes.
The batches are then filtered with the assistance of a Brandel Cell Harvester (Brandel, Grade Robotic 9600) on Unifilter plates with glass filter mats (Perkin Elmer, order number 6005177) and then washed 3 times with buffer (as above) using 250 μl per sample. The filter plates are then dried for 60 minutes at 55° C. Then 30 μl of Ultima Gold™ scintillating material (Packard BioScience, order number 6013159) is added per well and after 3 hours the samples are measured using the β counter (Microbeta, Perkin Elmer). Nonspecific binding is determined by the addition of 10 μM MPEP (Tocris, order number 1212).
Take `C(#Cc1ccc(-c2nc3cnccn3c2NC2CCCC2)s1)c1ccccc1` [Example 1, cyclopentyl-[2-(5-phenylethynyl-thiophen-2-yl)-imidazo[1,2-a]pyrazin-3-yl]-amine]: the inhibition at 10 µM amounted to 52%.
With `Cc1cccc2nc(-c3ccc(C#Cc4ccccc4)s3)c(NCC3CCCCC3)n12` [Example 2, cyclohexylmethyl-[5-methyl-2-(5-phenylethynyl-thiophen-2-yl)-imidazo[1,2-a]pyridin-3-yl]-amine], the inhibition at 10 µM was 95%.
`Cc1ccc2nc(-c3ccc(C#Cc4ccccc4)s3)c(NCC3CCCCC3)n2c1` [Example 3, cyclohexylmethyl-[6-methyl-2-(5-phenylethynyl-thiophen-2-yl)-imidazo[1,2-a]pyridin-3-yl]-amine]: the inhibition at 10 µM worked out at 95%.
As to `Cc1ccn2c(NCC3CCCCC3)c(-c3ccc(C#Cc4ccccc4)s3)nc2c1` [Example 4, cyclohexylmethyl-[7-methyl-2-(5-phenylethynyl-thiophen-2-yl)-imidazo[1,2-a]pyridin-3-yl]-amine], the inhibition at 10 µM worked out at 91%.
Take `Cc1cccn2c(NCC3CCCCC3)c(-c3ccc(C#Cc4ccccc4)s3)nc12` [Example 5, cyclohexylmethyl-[8-methyl-2-(5-phenylethynyl-thiophen-2-yl)-imidazo[1,2-a]pyridin-3-yl]-amine]: the inhibition at 10 µM is 100%.
For `Cc1cc(C)n2c(NCC3CCCCC3)c(-c3ccc(C#Cc4ccccc4)s3)nc2c1` [Example 6, cyclohexylmethyl-[5,7-dimethyl-2-(5-phenylethynyl-thiophen-2-yl)-imidazo[1,2-a]pyridin-3-yl]-amine], the inhibition at 10 µM came out at 92%.
Still for that read-out and setting: in the case of `C(#Cc1ccc(-c2nc3c(OCc4ccccc4)cccn3c2NCC2CCCCC2)s1)c1ccccc1` [Example 7, [8-benzyloxy-2-(5-phenylethynyl-thiophen-2-yl)-imidazo[1,2-a]pyridin-3-yl]-cyclohexylmethyl-amine] it was 89%.
For `C(#Cc1ccc(-c2nc3cnccn3c2NCC2CCCCC2)s1)c1ccccc1` [Example 8, cyclohexylmethyl-[2-(5-phenylethynyl-thiophen-2-yl)-imidazo[1,2-a]pyrazin-3-yl]-amine], the inhibition at 10 µM amounted to 100%.
As to `C(#Cc1ccc(-c2nc3ncccn3c2NCC2CCCCC2)s1)c1ccccc1` [Example 9, cyclohexylmethyl-[2-(5-phenylethynyl-thiophen-2-yl)-imidazo[1,2-a]pyrimidin-3-yl]-amine], the inhibition at 10 µM came out at 98%.
Still for that read-out and setting: in the case of `COc1ccc(CNc2c(-c3ccc(C#Cc4ccccc4)s3)nc3cccc(C)n23)cc1` [Example 10, (4-methoxy-benzyl)-[5-methyl-2-(5-phenylethynyl-thiophen-2-yl)-imidazo[1,2-a]pyridin-3-yl]-amine] it was 95%.
Take `COc1ccc(CNc2c(-c3ccc(C#Cc4ccccc4)s3)nc3ccc(C)cn23)cc1` [Example 11, (4-methoxy-benzyl)-[6-methyl-2-(5-phenylethynyl-thiophen-2-yl)-imidazo[1,2-a]pyridin-3-yl]-amine]: the inhibition at 10 µM turned out to be 82%.
Consider `COc1ccc(CNc2c(-c3ccc(C#Cc4ccccc4)s3)nc3cc(C)ccn23)cc1` [Example 12, (4-methoxy-benzyl)-[7-methyl-2-(5-phenylethynyl-thiophen-2-yl)-imidazo[1,2-a]pyridin-3-yl]-amine], for which the inhibition at 10 µM worked out at 96%.
Consider `COc1ccc(CNc2c(-c3ccc(C#Cc4ccccc4)s3)nc3c(C)cccn23)cc1` [Example 13, (4-methoxy-benzyl)-[8-methyl-2-(5-phenylethynyl-thiophen-2-yl)-imidazo[1,2-a]pyridin-3-yl]-amine], for which the inhibition at 10 µM stood at 96%.
As for `COc1ccc(CNc2c(-c3ccc(C#Cc4ccccc4)s3)nc3cc(C)cc(C)n23)cc1` [Example 14, [5,7-dimethyl-2-(5-phenylethynyl-thiophen-2-yl)-imidazo[1,2-a]pyridin-3-yl]-(4-methoxy-benzyl)-amine], the inhibition at 10 µM turned out to be 100%.
In the case of `COc1ccc(CNc2c(-c3ccc(C#Cc4ccccc4)s3)nc3c(OCc4ccccc4)cccn23)cc1` [Example 15, [8-benzyloxy-2-(5-phenylethynyl-thiophen-2-yl)-imidazo[1,2-a]pyridin-3-yl]-(4-methoxy-benzyl)-amine], the inhibition at 10 µM was 98%.
With `COc1ccc(CNc2c(-c3ccc(C#Cc4ccccc4)s3)nc3ccccn23)cc1` [Example 16, (4-methoxy-benzyl)-[2-(5-phenylethynyl-thiophen-2-yl)-imidazo[1,2-a]pyridin-3-yl]-amine], the inhibition at 10 µM turned out to be 93%.
As for `COc1ccc(CNc2c(-c3ccc(C#Cc4ccccc4)s3)nc3cnccn23)cc1` [Example 17, (4-methoxy-benzyl)-[2-(5-phenylethynyl-thiophen-2-yl)-imidazo[1,2-a]pyrazin-3-yl]-amine], the inhibition at 10 µM is 96%.
In the case of `Cc1ccc2nc(-c3ccc(C#Cc4ccccc4)s3)c(NC(C)(C)C)n2c1` [Example 19, tert-butyl-[6-methyl-2-(5-phenylethynyl-thiophen-2-yl)-imidazo[1,2-a]pyridin-3-yl]-amine], the inhibition at 10 µM worked out at 78%.
As to `COc1cccc(Nc2c(-c3ccc(C#Cc4ccccc4)s3)nc3c(OCc4ccccc4)cccn23)c1` [Example 20, [8-benzyloxy-2-(5-phenylethynyl-thiophen-2-yl)-imidazo[1,2-a]pyridin-3-yl]-(3-methoxy-phenyl)-amine], the inhibition at 10 µM worked out at 79%.
With `COc1cccc(CNc2c(-c3ccc(C#Cc4ccccc4)s3)nc3cccc(C)n23)c1` [Example 21, (3-methoxy-benzyl)-[5-methyl-2-(5-phenylethynyl-thiophen-2-yl)-imidazo[1,2-a]pyridin-3-yl]-amine], the inhibition at 10 µM was found to be 91%.
With `COc1cccc(CNc2c(-c3ccc(C#Cc4ccccc4)s3)nc3c(C)cccn23)c1` [Example 22, (3-methoxy-benzyl)-[8-methyl-2-(5-phenylethynyl-thiophen-2-yl)-imidazo[1,2-a]pyridin-3-yl]-amine], the inhibition at 10 µM came to 84%.
The same measure, in the same setting: in the case of `COc1cccc(CNc2c(-c3ccc(C#Cc4ccccc4)s3)nc3cc(C)cc(C)n23)c1` [Example 23, [5,7-dimethyl-2-(5-phenylethynyl-thiophen-2-yl)-imidazo[1,2-a]pyridin-3-yl]-(3-methoxy-benzyl)-amine] it was 86%; in that of `COc1cccc(CNc2c(-c3ccc(C#Cc4ccccc4)s3)nc3c(OCc4ccccc4)cccn23)c1` [Example 24, [8-benzyloxy-2-(5-phenylethynyl-thiophen-2-yl)-imidazo[1,2-a]pyridin-3-yl]-(3-methoxy-benzyl)-amine], 94%; in that of `COc1cccc(CNc2c(-c3ccc(C#Cc4ccccc4)s3)nc3ccccn23)c1` [Example 25, (3-methoxy-benzyl)-[2-(5-phenylethynyl-thiophen-2-yl)-imidazo[1,2-a]pyridin-3-yl]-amine], 81%.
In the case of `COc1cccc(CNc2c(-c3ccc(C#Cc4ccccc4)s3)nc3cnccn23)c1` [Example 26, (3-methoxy-benzyl)-[2-(5-phenylethynyl-thiophen-2-yl)-imidazo[1,2-a]pyrazin-3-yl]-amine], the inhibition at 10 µM came out at 97%.
As to `Cc1ccc2nc(-c3ccc(C#Cc4ccccc4)s3)c(NC(C)c3ccccc3)n2c1` (centres unmarked) [Example 27, [6-methyl-2-(5-phenylethynyl-thiophen-2-yl)-imidazo[1,2-a]pyridin-3-yl]-(1-phenyl-ethyl)-amine], the inhibition at 10 µM came out at 82%.
On to `Cc1ccn2c(NC(C)c3ccccc3)c(-c3ccc(C#Cc4ccccc4)s3)nc2c1` (centres unmarked) [Example 28, [7-methyl-2-(5-phenylethynyl-thiophen-2-yl)-imidazo[1,2-a]pyridin-3-yl]-(1-phenyl-ethyl)-amine], for which the inhibition at 10 µM amounted to 98%.
For the molecule `Cc1cc(C)n2c(NC(C)c3ccccc3)c(-c3ccc(C#Cc4ccccc4)s3)nc2c1` (centres unmarked) [Example 29, [5,7-dimethyl-2-(5-phenylethynyl-thiophen-2-yl)-imidazo[1,2-a]pyridin-3-yl]-(1-phenyl-ethyl)-amine], the inhibition at 10 µM was 87%.
With `CC(Nc1c(-c2ccc(C#Cc3ccccc3)s2)nc2c(OCc3ccccc3)cccn12)c1ccccc1` (centres unmarked) [Example 30, [8-benzyloxy-2-(5-phenylethynyl-thiophen-2-yl)-imidazo[1,2-a]pyridin-3-yl]-(1-phenyl-ethyl)-amine], the inhibition at 10 µM turned out to be 73%.
As for `Cc1cc(C)n2c(NCc3ccccc3Cl)c(-c3ccc(C#Cc4ccccc4)s3)nc2c1` [Example 32, (2-chloro-benzyl)-[5,7-dimethyl-2-(5-phenylethynyl-thiophen-2-yl)-imidazo[1,2-a]pyridin-3-yl]-amine], the inhibition at 10 µM came to 98%.

Staying with this assay, now noted: 3[H]-MPEP binding.
What is called pIC50 is the negative decadic logarithm of the IC50, by convention in mol/L. Read a low pIC50 as a high IC50. In turn, `CC(C)(C)Nc1c(-c2ccc(C#Cc3ccccc3)s2)nc2cnccn12` [Example 18, tert-butyl-[2-(5-phenylethynyl-thiophen-2-yl)-imidazo[1,2-a]pyrazin-3-yl]-amine] gave a pIC50 of 7.19.
Molecule `CC(Nc1c(-c2ccc(C#Cc3ccccc3)s2)nc2cnccn12)c1ccccc1` (centres unmarked) [Example 31, (1-phenyl-ethyl)-[2-(5-phenylethynyl-thiophen-2-yl)-imidazo[1,2-a]pyrazin-3-yl]-amine] gave a pIC50 of 6.28.
